Reference: ChEMBL document CHEMBL6096697, “Structure-Guided Discovery of Novel N4-(Substituted Thiazol-2-yl)-N2-(4-Substituted phenyl)pyrimidine-2,4-Diamines as Potent CDK2 and CDK9 Dual Inhibitors with High Oral Bioavailability” (J Med Chem, 2025)

Tests used:
[1] = system: HCT-116; assay: Antitumor activity against human HCT-116 cells xenografted in Balb/c-nu nude mouse at 35 mg/kg/day, po treated for 7 days consecutively relative to control; assay type: functional; settings: HCT-116, 168 h, time 7 day, read-out: TGI
[2] = Tmax in Sprague-Dawley rat at 10 mg/kg, po measured for 36 hrs by MRM analysis; assay type: ADME, organism-based; settings: in vivo
[3] = system: HCT-116; assay: Induction of cell cycle arrest in human HCT-116 cells assessed as accumulation at G1/G0 phase at 0.4 uM incubated for 24 hrs by PI staining based flow cytometry (reference value: 58.29 +/- 2.01 %); assay type: functional
[4] = Inhibition of CDK1/cyclin B (unknown origin) using […] incubated for 40 mins in presence of ATP by Kinase-Glo assay; parameters: species or system Homo sapiens
[5] = Inhibition of CDK9/cyclin T (unknown origin) using […] incubated for 40 mins in presence of ATP by Kinase-Glo assay; parameters: species or system Homo sapiens
[6] = system: HepG2; assay: Antiproliferative activity against human HepG2 cells assessed as cell growth inhibition incubated for 48 hrs by MTT assay; assay type: functional, cell-based; settings: HepG2, 48 h
[7] = target: CDK9/cyclin T1 (Homo sapiens) (UniProt O60563+P50750); assay: Inhibition of CDK9/cyclin T (unknown origin) using […] at 1 uM incubated for 40 mins in presence of ATP by Kinase-Glo assay relative to control; assay type: protein-complex assay
[8] = system: HeLa; assay: Induction of cell cycle arrest at G2/M phase in human HeLa cells assessed as decrease in p-Cdc2 level incubated for 48 hrs by Western blot analysis; assay type: functional, cell-based; settings: dose <= 3.6 µM
[9] = system: HCT-116; assay: Induction of apoptosis in human HCT-116 cells assessed as total apoptotic cells at 0.8 uM incubated for 24 hrs by PI staining based flow cytometry (reference value: 1.30 %); assay type: functional
[10] = system: HCT-116; assay: Induction of cell cycle arrest in human HCT-116 cells assessed as accumulation at sub-G1 phase at 0.4 uM incubated for 24 hrs by PI staining based flow cytometry (reference value: 2.45 +/- 0.49 %); assay type: functional
[11] = system: HeLa; assay: Induction of cell cycle arrest in human HeLa cells assessed as accumulation at G1/G0 phase at 1.8 uM incubated for 24 hrs by PI staining based flow cytometry (reference value: 57.63 +/- 1.7 %); assay type: functional
[12] = system: HCT-116; assay: Induction of cell cycle arrest in human HCT-116 cells assessed as accumulation at S phase at 0.2 uM incubated for 24 hrs by PI staining based flow cytometry (reference value: 20.82 +/- 1.24 %); assay type: functional
[13] = system: HT-29; assay: Antiproliferative activity against human HT-29 cells assessed as cell growth inhibition incubated for 48 hrs by MTT assay; assay type: functional, cell-based; settings: HT-29, 48 h
[14] = system: HeLa; assay: Effect on Bax level in human HeLa cells upto 3.6 uM incubated for 24 hrs by Western blot analysis; assay type: functional, cell-based
[15] = system: HCT-116; assay: Induction of apoptosis in human HCT-116 cells assessed as early apoptotic cells at 0.8 uM incubated for 24 hrs by PI staining based flow cytometry (reference value: 0.19 %); assay type: functional
[16] = system: HCT-116; assay: Induction of apoptosis in human HCT-116 cells assessed as viable cells at 0.8 uM incubated for 24 hrs by PI staining based flow cytometry (reference value: 79.4 %); assay type: functional; settings: read-out: Activity
[17] = AUC (0 to t) in Sprague-Dawley rat at 2 mg/kg, iv measured for 36 hrs by MRM analysis; assay type: ADME, organism-based; settings: in vivo
[18] = system: HeLa; assay: Induction of apoptosis in human HeLa cells assessed as total apoptotic cells at 3.6 uM incubated for 24 hrs by PI staining based flow cytometry (reference value: 4.65 %); assay type: functional
[19] = system: HCT-116; assay: Antitumor activity against human HCT-116 cells xenografted in Balb/c-nu nude mouse at 70 mg/kg/day, po treated for 7 days consecutively relative to control; assay type: functional; settings: HCT-116, 168 h, time 7 day, read-out: TGI
[20] = system: HCT-116; assay: Induction of cell cycle arrest in human HCT-116 cells assessed as accumulation at sub-G1 phase at 0.2 uM incubated for 24 hrs by PI staining based flow cytometry (reference value: 2.45 +/- 0.49 %); assay type: functional
[21] = Half life in Sprague-Dawley rat at 10 mg/kg, po measured for 36 hrs by MRM analysis; assay type: ADME, organism-based; settings: in vivo
[22] = system: U-87 MG; assay: Antiproliferative activity against human U-87 MG cells assessed as cell growth inhibition incubated for 48 hrs by MTT assay; assay type: functional, cell-based, U-87MG ATCC
[23] = system: A549; assay: Antiproliferative activity against human A549 cells assessed as cell growth inhibition incubated for 48 hrs by MTT assay; assay type: functional, cell-based; settings: A549, 48 h
[24] = system: HCT-116; assay: Induction of apoptosis in human HCT-116 cells assessed as late apoptotic cells at 0.2 uM incubated for 24 hrs by PI staining based flow cytometry (reference value: 1.11 %); assay type: functional
[25] = system: HCT-116; assay: Effect on Bax level in human HCT-116 cells upto 0.8 uM incubated for 24 hrs by Western blot analysis; assay type: functional, cell-based
[26] = target: Cyclin-dependent kinase 5/CDK5 activator 1 (Homo sapiens, UniProt Q00535); assay: Inhibition of CDK5/p35 (unknown origin) using […] incubated for 40 mins in presence of ATP by Kinase-Glo assay; assay type: protein-complex assay
Cyclin-dependent kinase 5/CDK5 activator 1, sequence (Q00535 whole entry): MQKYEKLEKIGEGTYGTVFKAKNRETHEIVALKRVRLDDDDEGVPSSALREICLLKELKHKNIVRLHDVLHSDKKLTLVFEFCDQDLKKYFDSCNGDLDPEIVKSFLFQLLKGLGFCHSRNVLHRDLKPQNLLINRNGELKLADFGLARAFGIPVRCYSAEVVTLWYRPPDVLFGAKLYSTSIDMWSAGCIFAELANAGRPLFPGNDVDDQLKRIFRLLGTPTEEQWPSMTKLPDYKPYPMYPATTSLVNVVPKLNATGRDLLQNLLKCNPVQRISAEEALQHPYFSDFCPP
Cyclin-dependent kinase 5/CDK5 activator 1, sequence (Q15078 whole entry, further chain): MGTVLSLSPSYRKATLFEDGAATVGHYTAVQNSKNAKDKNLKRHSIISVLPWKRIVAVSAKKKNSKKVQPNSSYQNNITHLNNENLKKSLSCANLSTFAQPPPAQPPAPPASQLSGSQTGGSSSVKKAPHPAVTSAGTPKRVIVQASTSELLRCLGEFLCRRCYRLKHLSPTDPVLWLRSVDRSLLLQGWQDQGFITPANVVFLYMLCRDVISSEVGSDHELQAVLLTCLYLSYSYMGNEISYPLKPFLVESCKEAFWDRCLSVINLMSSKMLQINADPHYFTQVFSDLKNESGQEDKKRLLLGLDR

[27] = system: HeLa; assay: Induction of apoptosis in human HeLa cells assessed as viable cells at 3.6 uM incubated for 24 hrs by PI staining based flow cytometry (reference value: 68.9 %); assay type: functional; settings: read-out: Activity
[28] = system: HCT-116; assay: Induction of apoptosis in human HCT-116 cells assessed as necrotic cells at 0.4 uM incubated for 24 hrs by PI staining based flow cytometry (reference value: 18.9 %); assay type: functional
[29] = MRT (0 to infinity) in Sprague-Dawley rat at 2 mg/kg, iv measured for 36 hrs by MRM analysis; assay type: ADME, organism-based; settings: in vivo
[30] = Toxicity in Balb/c-nu nude mouse xenografted with human HCT-116 cells assessed as toxicity in liver at 35 to 70 mg/kg/day, po treated for 30 days by H and E staining based analysis; assay type: organism-based; settings: in vivo, 720 h, dose 35-70 mg/kg/day, time 30 day
[31] = system: HeLa; assay: Induction of apoptosis in human HeLa cells assessed as necrotic cells at 0.9 uM incubated for 24 hrs by PI staining based flow cytometry (reference value: 25.5 %); assay type: functional
[32] = system: HeLa; assay: Induction of apoptosis in human HeLa cells assessed as necrotic cells at 3.6 uM incubated for 24 hrs by PI staining based flow cytometry (reference value: 25.5 %); assay type: functional
[33] = system: HCT-116; assay: Induction of apoptosis in human HCT-116 cells assessed as viable cells at 0.2 uM incubated for 24 hrs by PI staining based flow cytometry (reference value: 79.4 %); assay type: functional; settings: read-out: Activity
[34] = Clearance in Sprague-Dawley rat at 2 mg/kg, iv measured for 36 hrs by MRM analysis; assay type: ADME, organism-based; settings: in vivo
[35] = system: HCT-116; assay: Induction of apoptosis in human HCT-116 cells assessed as late apoptotic cells at 0.4 uM incubated for 24 hrs by PI staining based flow cytometry (reference value: 1.11 %); assay type: functional
[36] = Toxicity in Balb/c-nu nude mouse xenografted with human HCT-116 cells assessed as toxic reactions at 35 to 70 mg/kg/day, po treated for 30 days; assay type: organism-based; settings: in vivo, 720 h, dose 35-70 mg/kg/day, time 30 day
[37] = AUC (0 to infinity) in Sprague-Dawley rat at 2 mg/kg, iv measured for 36 hrs by MRM analysis; assay type: ADME, organism-based; settings: in vivo

`Cc1cnc(Nc2ccc(S(N)(=O)=O)cc2)nc1Nc1nccs1` gave an inhibition in vivo at 35 mg/kg/day [1] of 39%, a Tmax [2] of 0.5 h and an Activity [3] of 44.9%. The IC50 [4] was 53 nM, the IC50 [5] was 9 nM and the IC50 [6] was 2090 nM. The inhibition [7] was 99%, the Activity [8] was “Dose-dependent-effect” and the Activity [9] was 43.2%. The Activity [10] was 1.91%, the Activity [11] was 50.55% and the Activity [12] was 22.83%. The IC50 [13] was 3620 nM, the Activity [14] was “No effect” and the Activity [15] was 15.5%. For the same compound, the viability at 0.8 µM [16] was 52.8%, the AUC(0-t) at 36 h [17] was 33.5 ng·h/mL and the Activity [18] was 88.3%. The inhibition in vivo at 70 mg/kg/day [19] was 67%, the Activity [20] was 0.56% and the half-life [21] was 4 h. It also gave an IC50 [22] of 1010 nM, an IC50 [23] greater than 30000 nM and an Activity [24] of 31.2%. The Activity [25] was “No effect”, the IC50 [26] was 119 nM and the viability at 3.6 µM [27] was 11.7%. The Activity [28] was 4.8%, the MRT inf [29] was 2.8 h and the Activity [30] was “Non-toxic”. The Activity [31] was 0.81%, the Activity [32] was 0.72% and the viability at 0.2 µM [33] was 63.1%. The CL [34] was 1130 mL/min/kg, the Activity [35] was 22.9% and the Activity [36] was “Non-toxic”. For the same compound, the AUC(0-inf) [37] was 33.7 ng·h/mL.
